The record followed here is ChEMBL document CHEMBL3769377, “A synthesis, in silico, in vitro and in vivo study of thieno[2,3-b]pyridine anticancer analogues” (Medchemcomm, 2015).

Usually GI50 stands for the concentration at which growth is held to half of that of the control. What is called IC50 is the concentration that inhibits the measured activity by half.

A short description of assay [1]: Growth inhibition of human NCI60 cells assessed as cell growth at 10 uM after 48 hrs by sulforhodamine B assay relative to control. It counts as functional. The conditions noted are these: NCI60, 48 h, read-out: Activity.
The subject of assay [2] is MDA-MB-435. The experiment in a line: Cytotoxicity against human MDA-MB-435 cells assessed as cell death at 100 uM after 48 hrs by sulforhodamine B assay. It counts as functional, cell-based. On the technique in general: Sulforhodamine B stains cellular protein and so reports cell mass.
The test system of assay [3] is MDA-MB-435. The experiment in a line: Cytotoxicity against human MDA-MB-435 cells after 48 hrs by sulforhodamine B assay. It counts as functional. As to conditions: MDA-MB-435, 48 h; for CC50: read-out: LC50 (the source's name).
The test system of assay [4] is MDA-MB-468. Description: Cytotoxicity against human MDA-MB-468 cells after 48 hrs by sulforhodamine B assay. It counts as functional. As to conditions: MDA-MB-468, 48 h; for CC50: read-out: LC50 (the source's name).
For assay [5], the system named is 786-0. The experiment in a line: Cytotoxicity against human 786-0 cells after 48 hrs by sulforhodamine B assay. Format: functional. The conditions noted are these: 786-0, 48 h; for CC50: read-out: LC50 (the source's name).
Assay [6] relates to SF-539. The experiment in a line: Cytotoxicity against human SF539 cells assessed as assessed as cell death at 100 uM after 48 hrs by sulforhodamine B assay. Format: functional, cell-based.
Assay [7] is described as follows: Cytotoxicity against human SF539 cells after 48 hrs by sulforhodamine B assay. As to conditions: SF-539, 48 h; for CC50: read-out: LC50 (the source's name). It counts as functional.
Assay [8] has as its system MDA-MB-468. The experiment in a line: Cytotoxicity against human MDA-MB-468 cells assessed as cell death at 100 uM after 48 hrs by sulforhodamine B assay. Format: functional, cell-based.
The test system of assay [9] is 786-0. The experiment in a line: Cytotoxicity against human 786-0 cells assessed as cell death at 100 uM after 48 hrs by sulforhodamine B assay. Format: functional, cell-based.
The test system of assay [10] is SF-539. Description: Cytotoxicity against human SF539 cells assessed as growth inhibition at 100 uM after 48 hrs by sulforhodamine B assay. Format: functional, cell-based.
In assay [11] the target is Tyrosyl-DNA phosphodiesterase 1 (Homo sapiens, UniProt Q9NUW8). The experiment in a line: Inhibition of recombinant human N-terminal His-tagged TDP1 (1824 bp) expressed in Escherichia coli BL21(DE3) cells using 5'-(5,6 FAM-AAC GTC AGG GTC TTC C-BHQ1)-3' as substrate measured every 1 min by RT-PCR method.
Chain of Tyrosyl-DNA phosphodiesterase 1 (Q9NUW8 whole entry): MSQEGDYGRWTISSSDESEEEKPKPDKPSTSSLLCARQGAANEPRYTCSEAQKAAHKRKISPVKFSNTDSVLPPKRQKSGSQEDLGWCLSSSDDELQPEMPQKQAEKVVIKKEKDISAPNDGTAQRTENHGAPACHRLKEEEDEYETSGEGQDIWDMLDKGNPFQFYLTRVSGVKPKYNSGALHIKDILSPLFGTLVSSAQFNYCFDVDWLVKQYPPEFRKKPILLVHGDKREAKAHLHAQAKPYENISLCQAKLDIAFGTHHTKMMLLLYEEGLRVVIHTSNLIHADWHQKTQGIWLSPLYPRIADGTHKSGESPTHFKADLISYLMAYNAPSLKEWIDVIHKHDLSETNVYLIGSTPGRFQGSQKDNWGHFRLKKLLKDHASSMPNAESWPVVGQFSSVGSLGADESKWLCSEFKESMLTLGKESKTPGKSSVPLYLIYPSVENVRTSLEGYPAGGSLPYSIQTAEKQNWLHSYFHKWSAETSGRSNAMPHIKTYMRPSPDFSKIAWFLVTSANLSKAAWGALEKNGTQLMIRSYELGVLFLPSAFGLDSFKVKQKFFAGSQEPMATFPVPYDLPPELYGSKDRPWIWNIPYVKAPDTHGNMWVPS

Calls of active or inactive are those of the source. The calls are words filed in the database; no cut-off is given here.

As to `Nc1c(C(=O)Nc2ccccc2C(F)(F)F)sc2nc3c(cc12)CCCCCC3`, the growth at 10 µM in assay [1] was 80.2%.

In the case of `Nc1c(C(=O)Nc2ccccc2)sc2nc3c(cc12)CCCC3`, the result in the assay with MDA-MB-435 [2], in the assay on SF-539 [6], with MDA-MB-468 [8] and in the assay with 786-0 [9] was inactive. The GI50 with MDA-MB-435 [3] stood at 0.172 µM; in the assay with MDA-MB-468 [4], 0.303 µM; with 786-0 [5], 0.656 µM; in assay [7], 0.416 µM. Also, the growth at 10 µM in assay [1] worked out at 30.3%.

For `CCC1CCc2nc3sc(C(=O)Nc4ccccc4C)c(N)c3cc2C1` (racemic), the GI50 in the assay with MDA-MB-435 [3] worked out at 0.104 µM; in the assay with MDA-MB-468 [4] it was 0.244 µM; in the assay with 786-0 [5], 0.371 µM; in [7], 0.398 µM. Moreover, the result in the assay on SF-539 [6], with MDA-MB-468 [8] and in the assay with 786-0 [9] was inactive. The growth at 10 µM in assay [1] came out at 36.5%.

Take `Nc1c(C(=O)Nc2ccccc2)sc2nc3c(cc12)CCCCC3`: the result in the assay on MDA-MB-435 [2], in the assay with MDA-MB-468 [8] and in the assay with 786-0 [9] was inactive. In addition, the GI50 in the assay on MDA-MB-435 [3] is 0.205 µM; in the assay with MDA-MB-468 [4] it was 0.254 µM; in the assay on 786-0 [5] it was 0.465 µM; in [7] it was 0.307 µM. For the same compound, the CC50 in [7] was 94.3 µM. In addition, the growth at 10 µM in assay [1] came out at 14.7%.

For `Nc1c(C(=O)Nc2c(Cl)cccc2Cl)sc2nc3c(cc12)CCCCC3`, the growth at 10 µM in [1] was determined as 52.1%.

Regarding `Cc1cccc(NC(=O)c2sc3nc4c(cc3c2N)CCC4)c1C`, the 50% growth inhibitory concentration (GI50) in the assay on MDA-MB-435 [3] stood at 0.052 µM; in the assay on MDA-MB-468 [4] it was 0.197 µM; with 786-0 [5], 0.367 µM; in assay [7], 0.241 µM. Also, the CC50 was found to be 22.7 µM with MDA-MB-435 [3], 71.2 µM in the assay on MDA-MB-468 [4], 14.3 µM in the assay with 786-0 [5] and 72.4 µM in assay [7]. Further, the growth at 10 µM in assay [1] was 23.6%.

Regarding `CCC1CCc2nc3sc(C(=O)Nc4cccc(F)c4)c(N)c3cc2C1` (racemic), the result in the assay with MDA-MB-435 [2], with SF-539 [6], with MDA-MB-468 [8] and in the assay with 786-0 [9] was inactive. Moreover, the GI50 in the assay with MDA-MB-435 [3] worked out at 0.11 µM; in the assay with MDA-MB-468 [4], 0.471 µM; with 786-0 [5], 0.701 µM. In addition, the “growth inhibition (GI)” value in the assay on SF-539 [10] is “inactive”. For the same compound, the growth at 10 µM in assay [1] is 60.3%.

As to `Nc1c(C(=O)Nc2cccc(C(F)(F)F)c2)sc2nc3c(cc12)CCCCCC3`, the GI50 was found to be 2.1 µM with MDA-MB-435 [3], 0.798 µM in the assay with MDA-MB-468 [4], 1.6 µM in the assay with 786-0 [5] and 1.71 µM in assay [7]. Further, the CC50 was determined as 59.2 µM in the assay with MDA-MB-435 [3], 15.4 µM in the assay on MDA-MB-468 [4], 6.07 µM in the assay with 786-0 [5] and 6.65 µM in assay [7]. For the same compound, the IC50 in [11] stood at 0.5 µM. Moreover, in [1], the growth at 10 µM was determined as 7%.

On to `Cc1cccc(NC(=O)c2sc3nc4c(cc3c2N)CCCC4)c1`, for which the outcome with MDA-MB-435 [2], in the assay with SF-539 [6], with MDA-MB-468 [8] and with 786-0 [9] was inactive. In addition, the 50% growth inhibitory concentration (GI50) with MDA-MB-435 [3] was 0.305 µM; in the assay on MDA-MB-468 [4], 1.75 µM; in the assay on 786-0 [5] it was 4.13 µM; in assay [7] it was 4.74 µM. The growth at 10 µM in assay [1] came to 39.9%.

As for `Nc1c(C(=O)Nc2cccc(C(F)(F)F)c2)sc2nc3c(cc12)CCCCC3`, the outcome in the assay on MDA-MB-435 [2] was inactive. The 50% growth inhibitory concentration (GI50) was 2.53 µM with MDA-MB-435 [3], 0.394 µM in the assay on MDA-MB-468 [4], 1.58 µM with 786-0 [5] and 1.94 µM in [7]. In addition, the CC50 in the assay on MDA-MB-468 [4] stood at 31 µM; in the assay on 786-0 [5] it was 6.24 µM; in [7] it was 11.3 µM. Further, the growth at 10 µM in [1] was determined as 10%.

As for `CCC1CCc2nc3sc(C(=O)Nc4cccc(C)c4)c(N)c3cc2C1` (racemic), in assay [1], the growth at 10 µM stood at 69.7%.

For `Nc1c(C(=O)Nc2ccccc2)sc2nc3c(cc12)CCCCCC3`, the concentration for 50% growth inhibition (GI50) came to 0.052 µM with MDA-MB-435 [3], 0.291 µM in the assay on MDA-MB-468 [4], 0.354 µM in the assay on 786-0 [5] and 0.217 µM in [7]. Besides, the figures for the CC50 (in the assay with MDA-MB-435 [3]; with 786-0 [5]; in [7]) were 0.897 µM, 10.2 µM and 3.2 µM, respectively. In the assay on MDA-MB-468 [8], the outcome was inactive. The growth at 10 µM in [1] came out at 12.5%.

For `CCC1CCc2nc3sc(C(=O)Nc4ccccc4F)c(N)c3cc2C1` (racemic), the result in the assay with MDA-MB-435 [2], in the assay on SF-539 [6], in the assay with MDA-MB-468 [8] and in the assay on 786-0 [9] was inactive. The GI50 with MDA-MB-435 [3] is 0.133 µM; in the assay on MDA-MB-468 [4] it was 0.347 µM; in the assay with 786-0 [5] it was 41.7 µM; in assay [7] it was 10 µM. For the same compound, the growth at 10 µM in [1] came out at 61.1%.

For the compound `Nc1c(C(=O)Nc2cccc(C(F)(F)F)c2)sc2nc3c(cc12)CCCC3`, in assay [1], the growth at 10 µM stood at 88.1%.

For `Nc1c(C(=O)Nc2ccccc2Cl)sc2nc3c(cc12)CCCC3`, in assay [1], the growth at 10 µM was 99.4%.

For the compound `Nc1c(C(=O)Nc2ccccc2F)sc2nc3c(cc12)CCCC3`, the growth at 10 µM in assay [1] is 34.5%.

As to `COc1cccc(NC(=O)c2sc3nc4c(cc3c2N)CCCC4)c1`, the GI50 came to 0.15 µM with MDA-MB-435 [3], 0.239 µM with MDA-MB-468 [4], 0.42 µM in the assay with 786-0 [5] and 0.368 µM in assay [7]. For the same compound, the CC50 in the assay on MDA-MB-435 [3] turned out to be 13.5 µM. The outcome in the assay on SF-539 [6], in the assay with MDA-MB-468 [8] and with 786-0 [9] was inactive. In assay [1], the growth at 10 µM worked out at 28.2%.

`Nc1c(C(=O)Nc2ccccc2Cl)sc2nc3c(cc12)CCCCCC3`: the 50% growth inhibitory concentration (GI50) in the assay with MDA-MB-435 [3] was found to be 0.275 µM; with MDA-MB-468 [4], 2.25 µM; in the assay on 786-0 [5], 1.75 µM; in assay [7] it was 2.65 µM. Also, the CC50 in the assay on MDA-MB-435 [3] came to 20.9 µM; with 786-0 [5] it was 6.12 µM; in assay [7] it was 46.6 µM. For the same compound, the IC50 in assay [11] came out at 1 µM. Further, the outcome in the assay on MDA-MB-468 [8] was inactive. Further, in assay [1], the growth at 10 µM worked out at 29%.

For `Nc1c(C(=O)Nc2ccccc2C(F)(F)F)sc2nc3c(cc12)CCC3`, the concentration for half-maximal inhibition (IC50) in assay [11] was > 15 µM.

In the case of `Nc1c(C(=O)Nc2ccccc2F)sc2nc3c(cc12)CCC3`, the growth at 10 µM in assay [1] is 102%.

Consider `Nc1c(C(=O)Nc2ccccc2C(F)(F)F)sc2nc3c(cc12)CCCC3`, for which, in [1], the growth at 10 µM is 90.6%.

Consider `Nc1c(C(=O)Nc2cccc(C(F)(F)F)c2)sc2nc3c(cc12)C(=O)CC3`, for which the IC50 in [11] is 1.7 µM.

Consider `Nc1c(C(=O)Nc2ccccc2)sc2nc3c(cc12)CCC3`, for which the growth at 10 µM in [1] amounted to 79.5%.
